Earlier results as cited in patent publication US20050261335A1, “Carvedilol formulations” (priority 2002, published 2005).
Where two headings read alike, the source gives them in different places.

solubility (above pH 9.0): < 1 µg/mL
saturation solubility (pH 5, room temperature): ~100 µg/mL
saturation solubility (pH 7, room temperature): ~23 µg/mL
Compound: COc1ccccc1OCCNCC(O)COc1cccc2[nH]c3ccccc3c12 (racemic) [Carvedilol]
